# Measured values taken from patent US20060257474A1, “Remedies for glomerular diseases” (Kowa Co., Ltd., priority 2002, published 2006).
# Counter-ions that a name gives are not always drawn.
# Tested on: progressive anti-Thy-1 nephritic rat
# Assay: Pharmacological test to a progressive anti-Thy-1 nephritic rat: total amount of protein excretion in urine
# Format: in vivo, Wistar female rats
# Conditions: 18 h urine
# Protocol: Wistar female rats (5 weeks of age, purchased from Japan SLC Co., Ltd.) were quarantined and acclimatized for 4 days and then used for the test. First, a right kidney of the rat was removed through a flank incision under anesthesia with pentobarbital. After 2 weeks passed, an anti-Thy-1 antibody (monoclonal antibody 1-22-3; purchased from […] Laboratories Co., Ltd.) was intravenously administered (500 μg/rat) into the tail vein to thereby bring about progressive renal damage, and the following tests 1 to 3 were immediately investigated. […] Control group (antibody-treated and compound-non-administered group): N=8, an antibody-non-treated group: N=6. Test 2: dilazep hydrochloride (10 mg/kg) dissolved in a physiological saline was continuously intraperitoneally administered for 10 weeks. Control group (antibody-treated and compound-non-administered group): N=8, an antibody-non-treated group: N=6. […] Control group (antibody-treated and compound-non-administered group): N=10, an antibody-non-treated group: N=6. In each test, after administering the drugs for 10 weeks, urine was taken for 18 hours by means of a metabolic cage (Sugiyama Gen Co., Ltd.) to measure the total amount of protein excretion in urine.
smiles,measurement,setting,value
COc1cc(C(=O)OCCCN2CCCN(CCCOC(=O)c3cc(OC)c(OC)c(OC)c3)CC2)cc(OC)c1OC [dilazep hydrochloride],total amount of protein excretion in urine,"dilazep hydrochloride alone, 10 mg/kg intraperitoneally for 10 weeks, vs compound-non-administered control group (FIG. 2)",almost the same as that of the compound-non-administered group in the control
O=C([O-])C[C@H](O)C[C@H](O)/C=C/c1c(C2CC2)nc2ccccc2c1-c1ccc(F)cc1.O=C([O-])C[C@H](O)C[C@H](O)/C=C/c1c(C2CC2)nc2ccccc2c1-c1ccc(F)cc1.[Ca+2] [pitavastatin calcium],total amount of protein excretion in urine,"pitavastatin calcium alone, 10 mg/kg orally for 10 weeks, vs compound-non-administered control group (FIG. 1)",almost the same as that of the compound-non-administered group in the control
